# Earlier results, collected in patent US20130281718A1, “HIGH-FLUIDITY NON-CAKING DIANHYDROHEXITOL PELLETS” (ROQUETTE FRERES, priority 2010, published 2013).
# Details: addition of 0.005% by weight of butyl cellulose acetate; pressure of 0.23 bar after forming
smiles,measurement,value
CC(C)(CO)CO [neopentyl glycol],Time without caking,30 days
